Values after ≈ are worked out from the molar mass of the structure shown. Read-outs that look alike come from different tables or passages of the source.
What was measured:
Test in all cases: MIC, broth-microdilution (CLSI VET01-A4)
Assay type in all cases: cell-based
[1] = tested on: Pasteurella multocida PM 6391 (ATCC 43137, reference strain); details: Pasteurella multocida PM 6391; for MIC: read-out: MIC PM 6391
Method in brief: (§1)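 Visual no-turbidity endpoint over twofold compound dilutions in microdilution trays, interpreted according to CLSI VET01-S3.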

[2] = tested on: Mannheimia haemolytica MH 10720 (154, BRD field isolate); details: Mannheimia haemolytica MH 10720; for MIC: read-out: MIC MH 10720
Method in brief: as §1

[3] = tested on: Mannheimia haemolytica MH 6374 (ATCC 33396, reference strain); details: Mannheimia haemolytica MH 6374, read-out: MIC MH 6374
Method in brief: as §1

[4] = tested on: Mannheimia haemolytica MH 12587 (1071, BRD field isolate, macrolide-resistance: erm+, E+); details: for MIC MH 12587: Mannheimia haemolytica MH 12587, macrolide-resistant
Method in brief: as §1

[5] = tested on: Pasteurella multocida PM 6267 (P 2225 (L386), reference strain, mouse infection strain); details: Pasteurella multocida PM 6267; for MIC: read-out: MIC PM 6267
Method in brief: as §1

[6] = tested on: Pasteurella multocida PM 10775 (080130003051, BRD field isolate); details: Pasteurella multocida PM 10775
Method in brief: as §1

[7] = tested on: Pasteurella multocida PM 12080 (IV102277-0093, BRD field isolate); details: Pasteurella multocida PM 12080; for MIC: read-out: MIC PM 12080
Method in brief: as §1

[8] = tested on: Mannheimia haemolytica MH 6357 (M7/2, reference strain, cattle infection strain); details: Mannheimia haemolytica MH 6357; read-out: MIC MH 6357
Method in brief: as §1

[9] = tested on: Mannheimia haemolytica MH 13065 (XB0446-6003.9, BRD field isolate)
Method in brief: (§2)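 Broth microdilution per CLSI VET01-A4 using doubling dilution series of compound. MIC taken as the lowest concentration with no turbidity visible to the unaided eye, interpreted per CLSI VET01-S3.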

[10] = tested on: Mannheimia haemolytica MH 13093 (XB0472-6014.1, BRD field isolate)
Method in brief: as §2

Compound	MIC PM 6391 [1]	MIC MH 10720 [2]	MIC [3]	MIC MH 12587 [4]	MIC PM 6267 [5]	MIC PM 10775 [6]	MIC PM 12080 [7]	MIC [8]	MIC [9]	MIC [10]	MIC [1]	MIC [2]	MIC [7]	MIC [5]	MIC ([1]; ATCC43137)	MIC ([3]; ATCC33396)	MIC ([4]; Mannheimia haemolytica, read-out: MIC MH 12587)	MIC ([6]; read-out: MIC PM 10775)
CC(C)(C(NC(=O)c1ccc(C#Cc2ccc(CNCc3ccccn3)cc2)cc1)C(=O)NO)S(C)(=O)=O (stereo not drawn) [C. 615]	<=0.1 μM	<=0.1 μM	0.4 µM (≈ 0.214 µg/mL)	1.6 µM (≈ 0.855 µg/mL)	<=0.1 μM	<=0.1 μM	<=0.1 μM	1.6 µM (≈ 0.855 µg/mL)	1.6 µM (≈ 0.855 µg/mL)	0.8 µM (≈ 0.428 µg/mL)								
COc1ccc(CNCc2ccc(C#Cc3ccc(C(=O)NC(C(=O)NO)C(C)(C)O)cc3)cc2)cc1 (stereo not drawn) [Compound 570]		<=0.1 μM	0.8 µM (≈ 0.401 µg/mL)	1.6 µM (≈ 0.803 µg/mL)	<=0.1 μM	<=0.1 μM	<=0.1 μM	0.8 µM (≈ 0.401 µg/mL)	0.8 µM (≈ 0.401 µg/mL)	0.8 µM (≈ 0.401 µg/mL)	0.4 µM (≈ 0.201 µg/mL)							
CSC(C)(C)[C@H](NC(=O)c1ccc(C#Cc2ccc(CNCc3cccnc3)cc2)cc1)C(=O)NO [Compound 593]			0.8 µM (≈ 0.402 µg/mL)	0.8 µM (≈ 0.402 µg/mL)	<=0.1 μM	<=0.1 μM		0.4 µM (≈ 0.201 µg/mL)	0.4 µM (≈ 0.201 µg/mL)	0.8 µM (≈ 0.402 µg/mL)	0.8 µM (≈ 0.402 µg/mL)	0.2 µM (≈ 0.101 µg/mL)	0.2 µM (≈ 0.101 µg/mL)					
CC(C)C(NC(=O)c1ccc(C#Cc2ccc(CNCc3cccs3)cc2)cc1)C(=O)NO (stereo not drawn) [Compound 291]		<=0.1 μM	0.4 µM (≈ 0.185 µg/mL)	0.8 µM (≈ 0.369 µg/mL)	<=0.1 μM	<=0.1 μM	<=0.1 μM	0.2 µM (≈ 0.0923 µg/mL)	0.2 µM (≈ 0.0923 µg/mL)	0.4 µM (≈ 0.185 µg/mL)	0.2 µM (≈ 0.0923 µg/mL)							
CC(C)(N)C(NC(=O)c1ccc(C#Cc2ccc(CNCc3ccccc3)cc2)cc1)C(=O)NO (racemic) [Compound 321]	<=0.1 μM		0.8 µM (≈ 0.376 µg/mL)	1.6 µM (≈ 0.753 µg/mL)		<=0.1 μM		1.6 µM (≈ 0.753 µg/mL)	0.8 µM (≈ 0.376 µg/mL)	1.6 µM (≈ 0.753 µg/mL)		0.4 µM (≈ 0.188 µg/mL)	0.2 µM (≈ 0.0941 µg/mL)	0.4 µM (≈ 0.188 µg/mL)				
CSC(C)(C)[C@H](NC(=O)c1ccc(C#Cc2ccc(CNCc3ccncc3)cc2)cc1)C(=O)NO [Compound 587]	<=0.1 μM	<=0.1 μM	0.8 µM (≈ 0.402 µg/mL)	0.8 µM (≈ 0.402 µg/mL)	<=0.1 μM	<=0.1 μM	<=0.1 μM	0.4 µM (≈ 0.201 µg/mL)	0.4 µM (≈ 0.201 µg/mL)	0.4 µM (≈ 0.201 µg/mL)								
CC(C)([C@H](NC(=O)c1ccc(C#Cc2ccc(CNCc3nccs3)s2)cc1)C(=O)NO)S(C)(=O)=O [Compound 745]	<=0.1 μM	<=0.1 μM	0.2 µM (≈ 0.109 µg/mL)	0.4 µM (≈ 0.219 µg/mL)	<=0.1 μM	<=0.1 μM	<=0.1 μM	0.4 µM (≈ 0.219 µg/mL)	0.4 µM (≈ 0.219 µg/mL)	0.4 µM (≈ 0.219 µg/mL)								
C[C@@H](O)[C@H](NC(=O)c1ccc(C#Cc2ccc([N+](=O)[O-])cc2)cc1)C(=O)NO [Compound 243, N-[(1S,2R)-2-hydroxy-1-(hydroxycarbamoyl)propyI]-4-[2-(4-nitrophenyl)ethynyl]benzamide]								0.2 µM (≈ 0.0767 µg/mL)	0.4 µM (≈ 0.153 µg/mL)	1.6 µM (≈ 0.613 µg/mL)		≤ 0.1 µM	0.2 µM (≈ 0.0767 µg/mL)	≤ 0.1 µM	0.2 µM (≈ 0.0767 µg/mL)	0.4 µM (≈ 0.153 µg/mL)	0.8 µM (≈ 0.307 µg/mL)	≤ 0.1 µM
CC(C)(O)C(NC(=O)c1ccc(C#Cc2ccc(CNCc3ccccc3)cc2)cc1)C(=O)NO (stereo not drawn) [Compound 569]	<=0.1 μM	<=0.1 μM	0.4 µM (≈ 0.189 µg/mL)	0.8 µM (≈ 0.377 µg/mL)	<=0.1 μM	<=0.1 μM	<=0.1 μM	0.8 µM (≈ 0.377 µg/mL)	0.4 µM (≈ 0.189 µg/mL)	0.4 µM (≈ 0.189 µg/mL)								

Source: patent publication US20230000813A1, “COMPOUND FOR THE TREATMENT OF BOVINE OR SWINE RESPIRATORY DISEASE” (Intervet Inc., priority 2016, published 2023)
